pIC50: −log10 of the molar value. Like-named read-outs stand apart in the source and are kept apart here.
Legend:
[1] = target: T1, CCR4 (Homo sapiens, UniProt P51679); experiment: Radio ligand competition binding assay on CCR4 cell membrane extract; details: HEK293 CCR4 cell membrane extract, 4 °C, 24 h
T1 construct: expressed in transfected cells; cell membrane extract
T1 sequence (P51679 1-360): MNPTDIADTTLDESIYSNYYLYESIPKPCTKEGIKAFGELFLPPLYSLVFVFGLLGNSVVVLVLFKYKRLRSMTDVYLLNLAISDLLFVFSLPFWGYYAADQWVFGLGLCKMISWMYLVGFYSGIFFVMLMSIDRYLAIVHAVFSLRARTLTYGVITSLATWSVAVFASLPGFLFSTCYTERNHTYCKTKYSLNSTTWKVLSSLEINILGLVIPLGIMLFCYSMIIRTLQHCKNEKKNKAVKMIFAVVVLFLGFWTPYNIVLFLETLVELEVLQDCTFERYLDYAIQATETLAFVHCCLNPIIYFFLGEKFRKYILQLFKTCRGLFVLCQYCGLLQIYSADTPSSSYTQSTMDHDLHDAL
Protocol: A HEK293 cell line stably expressing CCR4-enhanced green fluorescent protein was established. CCL22, CCL17 and C27 were labeled with [^125I]. For competition binding assays, equivalent quantities of cell membrane extract and [^125I]-CCL22, [^125I]-CCL17 and [^125I]-C27 were incubated with varying quantities of unlabeled compound 8a, compound 6b and compound 22. All reactions were incubated at 4 °C for 24 h. After the binding step, 25% polyethylene glycol (6000–8000) and 0.5% human g-globulin were added, and the mixture was incubated at room temperature for 15 min. Binding complexes were obtained by centrifuging the mixture at 3500 rpm for 20 min at 4 °C, and radioactivity was evaluated. Results were corrected for “blank” background radiation, defined as the radioactivity precipitated by polyethylene glycol–g-globulin from the same amount of radioactive ligand in binding buffer in the absence of cells.

[2] = target: T2, CCR3 (Homo sapiens, UniProt P51677); experiment: Chemotaxis inhibition assay for receptor specificity, HEK293-CCR3; type: cell-based; details: 0.2, 1, 5, 25 μM, 30 min pretreatment
T2 sequence (P51677 2-355 limits assumed): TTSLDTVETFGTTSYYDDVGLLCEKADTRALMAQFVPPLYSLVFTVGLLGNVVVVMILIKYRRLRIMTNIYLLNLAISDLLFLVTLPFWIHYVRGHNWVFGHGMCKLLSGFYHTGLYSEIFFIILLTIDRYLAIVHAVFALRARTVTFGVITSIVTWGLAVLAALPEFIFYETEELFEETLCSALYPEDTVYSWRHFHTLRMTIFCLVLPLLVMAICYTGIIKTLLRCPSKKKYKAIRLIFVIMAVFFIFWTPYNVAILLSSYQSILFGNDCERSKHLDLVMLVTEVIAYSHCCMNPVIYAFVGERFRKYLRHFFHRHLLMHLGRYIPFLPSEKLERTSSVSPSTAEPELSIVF
Protocol: HEK293 cells were transfected with different chemokine receptors. The corresponding chemokines of different receptors were placed in the lower chambers. The transfected cells were pretreated with different concentrations of Compound 8a or 1‰ DMSO for 30 min at a density of 1 × 10^6 cells/ml and added to the upper chambers, the final concentration of the compound is: 0.2 μM, 1 μM, 5 μM, and 25 μM, respectively.

[3] = target: T3, CXCR1 (Homo sapiens, UniProt P25024); experiment: Chemotaxis assay for receptor specificity, HEK293-CXCR1; type: cell-based; details: compound as chemoattractant in lower chamber, 0.2, 1, 5, 25 μM
T3 construct: expressed in transfected cells; host or cells: HEK293; plasmid gift of Dr. Philip M. Murphy (NIAID, NIH)
T3 sequence (P25024 1-350): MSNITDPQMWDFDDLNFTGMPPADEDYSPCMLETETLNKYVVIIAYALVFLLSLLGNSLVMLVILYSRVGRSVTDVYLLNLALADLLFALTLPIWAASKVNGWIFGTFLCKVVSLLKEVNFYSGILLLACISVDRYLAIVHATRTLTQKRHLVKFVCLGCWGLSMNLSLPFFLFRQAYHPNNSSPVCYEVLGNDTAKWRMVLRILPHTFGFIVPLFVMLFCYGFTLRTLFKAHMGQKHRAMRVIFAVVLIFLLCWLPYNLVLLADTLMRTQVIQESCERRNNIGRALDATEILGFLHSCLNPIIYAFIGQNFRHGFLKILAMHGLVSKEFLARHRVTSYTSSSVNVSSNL
Protocol: HEK293 cells were transfected with different chemokine receptors. Compound 8a with DMSO was diluted to 0.2 mM, 1 mM, 5 mM and 25 mM, and then we used RPMI 1640 medium containing 0.1% BSA for dilution. The final concentration is: 0.2 μM, 1 μM, 5 μM and 25 μM. DMSO was also diluted 1000-fold with 0.1% BSA RPMI 1640 medium. Chemokines was also diluted to an appropriate concentration. The dilutions of Compound 8a, 1‰ DMSO, the corresponding chemokines of different receptors and 0.1% BSA RPMI 1640 medium were placed in the lower chambers (27.5 μl/well). The transfected HEK293 cells were resuspended in the same medium at a density of 1 × 10^6 cells/ml and added to the upper chambers (55 μl/well).

[4] = system: OVA-induced asthmatic mice; experiment: Airway mucus production (PAS staining) in OVA-induced asthmatic mice; type: in vivo, BALB/c mice; details: compound 8a 0.2, 1, 5 mg; budesonide 5 mg; vs vehicle treated group
Protocol: Male BALB/c 6 week old mice were purchased from the Experimental Animal Center of Zhejiang University. All mice were raised in a specific pathogen-free animal facility. All animal experiments were carried out according to the guidelines for the care and use of laboratory animals and were approved by the ethics committee of Zhejiang University and Peking University, China.
Mice were sensitized and challenged with chicken egg OVA (sigma-Aldrich, St Louis, MO, USA) as described in details previously. Briefly, after sensitized by intraperitoneal injection of 100 μl (80 μg) OVA in 100 μl alum (Pierce, Rockford, IL, USA) on days 0 and 14, mice were exposure to 1% OVA aerosols for 40 min on days 24–26. Control mice were injected intraperitoneally with saline and exposed to saline aerosols.
Compound 8a was dissolved in saline with DMSO (0.5%). Half an hour before each OVA challenge, the groups of mice treated with various doses of compound 8a (0.2, 1, 5 mg) inhaled aerosolized compound 8a for 45 min on days 24–26. Compound 8a aerosols were produced by using a Plexiglas chamber and ultrasonic nebulizer. […]
After sacrificed, the lungs were fixed in formalin overnight. […] Inflammation was scored according to published guidelines. And PAS-stained goblet cells in airway epithelium were quantified as described previously.

- pIC50 ([1]; [125I]-C27, read-out: IC50, competitive binding with C27 to CCR4): 7.21
- pIC50 ([1]; [125I]-CCL17, read-out: IC50, competitive binding with CCL17 to CCR4): 6.82
- pIC50 ([1]; [125I]-CCL22, read-out: IC50, competitive binding with CCL22 to CCR4): 6.56
- inhibition of chemotaxis of HEK293-CCR3 to its ligand [2]: few influence
- chemotaxis effect of the compound on HEK293-CXCR1 [3]: didn’t exert chemotaxis effects
Compound: O=C(C1CCCCN1)N1CCN(c2nc(Cl)cc(NCc3ccc(Cl)cc3Cl)n2)CC1 (stereo not drawn) [compound 8a, {4-[4-Chloro-6-(2,4-dichloro-benzylamino)-pyrimidin-2-yl]-piperazin-1-yl}-piperidin-2-yl-methanone]
- airway mucus production (PAS-stained cells) [4]: no difference

— paper PMC5678437, “A new antagonist for CCR4 attenuates allergic lung inflammation in a mouse model of asthma” (Scientific Reports, 2017)
